System: skin
Experiment: Affymetrix microarray of skin, DBP-4 hr and analogs vs. untreated; gene selection by log-2 fold change, Wilcoxon, Kendall tau (Tables 8, 9)
Assay type: in vivo, mouse

CCOC(=O)c1ccccc1C(=O)OCC [DEP, diethylphthalate]
Log2 Expression Level (gene #1 of Table 8): 5.52 | Log2 Expression Level (gene #2 of Table 8): 7.18 | Log2 Expression Level (gene #3 of Table 8): 8.98 | Log2 Expression Level (gene #4 of Table 8): 8.98 | Log2 Expression Level (gene #5 of Table 8): 6.10 | Log2 Expression Level (gene #6 of Table 8): 7.14 | Log2 Expression Level (gene #7 of Table 8): 6.55 | Log2 Expression Level (gene #8 of Table 8): 7.14 | Log2 Expression Level (gene #9 of Table 8): 7.14 | Log2 Expression Level (gene #10 of Table 8): 7.14 | Log2 Expression Level (gene #11 of Table 8): 6.55 | Log2 Expression Level (gene #12 of Table 8): 6.55 | Log2 Expression Level (gene #13 of Table 8): 6.55 | Log2 Expression Level (gene #14 of Table 8): 4.71 | Log2 Expression Level (gene #15 of Table 8): 4.71 | Log2 Expression Level (gene #16 of Table 8): 7.54 | Log2 Expression Level (gene #17 of Table 8): 9.32 | Log2 Expression Level (gene #18 of Table 8): 9.32 | Log2 Expression Level (gene #19 of Table 8): 8.41 | Log2 Expression Level (gene #20 of Table 8): 8.85 | Log2 Expression Level (gene #21 of Table 8): 8.77 | Log2 Expression Level (gene #22 of Table 8): 5.30 | Log2 Expression Level (gene #23 of Table 8): 6.03 | Log2 Expression Level (gene #24 of Table 8): 7.92 | Log2 Expression Level (gene #25 of Table 8): 7.92 | Log2 Expression Level (gene #26 of Table 8): 7.51 | Log2 Expression Level (gene #27 of Table 8): 7.51 | Log2 Expression Level (gene #28 of Table 8): 7.51 | Log2 Expression Level (gene #29 of Table 8): 5.79 | Log2 Expression Level (gene #30 of Table 8): 8.76 | Log2 Expression Level (gene #31 of Table 8): 8.76 | Log2 Expression Level (gene #32 of Table 8): 8.76 | Log2 Expression Level (gene #33 of Table 8): 5.34 | Log2 Expression Level (gene #34 of Table 8): 6.85 | Log2 Expression Level (gene #35 of Table 8): 6.85 | Log2 Expression Level (gene #36 of Table 8): 8.98 | Log2 Expression Level (gene #37 of Table 8): 8.98 | Log2 Expression Level (gene #38 of Table 8): 8.98 | Log2 Expression Level (gene #39 of Table 8): 7.28 | Log2 Expression Level (gene #40 of Table 8): 7.39 | Log2 Expression Level (gene #41 of Table 8): 7.54 | Log2 Expression Level (gene #42 of Table 8): 7.18 | Log2 Expression Level (gene #43 of Table 8): 7.18 | Log2 Expression Level (gene #44 of Table 8): 7.54 | Log2 Expression Level (gene #45 of Table 8): 7.18 | Log2 Expression Level (gene #46 of Table 8): 7.54 | Log2 Expression Level (gene #47 of Table 8): 8.45 | Log2 Expression Level (gene #48 of Table 8): 8.45 | Log2 Expression Level (gene #49 of Table 8): 8.45 | Log2 Expression Level (gene #50 of Table 8): 9.67 | Log2 Expression Level (gene #51 of Table 8): 7.95 | Log2 Expression Level (gene #52 of Table 8): 9.60 | Log2 Expression Level (gene #53 of Table 8): 8.70 | Log2 Expression Level (gene #54 of Table 8): 10.81 | Log2 Expression Level (gene #55 of Table 8): 6.30 | Log2 Expression Level (gene #56 of Table 8): 9.40 | Log2 Expression Level (gene #57 of Table 8): 8.76 | Log2 Expression Level (gene #58 of Table 8): 8.74 | Log2 Expression Level (gene #59 of Table 8): 7.93 | Log2 Expression Level (gene #60 of Table 8): 7.26 | Log2 Expression Level (gene #61 of Table 8): 12.58 | Log2 Expression Level (gene #62 of Table 8): 7.63 | Log2 Expression Level (gene #63 of Table 8): 10.52 | Log2 Expression Level (gene #64 of Table 8): 11.04 | Log2 Expression Level (gene #65 of Table 8): 6.97 | Log2 Expression Level (gene #66 of Table 8): 7.90 | Log2 Expression Level (gene #67 of Table 8): 4.52 | Log2 Expression Level (gene #68 of Table 8): 8.29 | Log2 Expression Level (gene #69 of Table 8): 5.13 | Log2 Expression Level (gene #70 of Table 8): 4.38 | Log2 Expression Level (gene #71 of Table 8): 7.95 | Log2 Expression Level (gene #72 of Table 8): 7.61 | Log2 Expression Level (gene #73 of Table 8): 6.09 | Log2 Expression Level (gene #74 of Table 8): 7.13 | Log2 Expression Level (gene #75 of Table 8): 8.41 | Log2 Expression Level (gene #76 of Table 8): 4.13 | Log2 Expression Level (gene #77 of Table 8): 9.75 | Log2 Expression Level (gene #78 of Table 8): 10.71 | Log2 Expression Level (gene #79 of Table 8): 6.51 | Log2 Expression Level (gene #80 of Table 8): 12.79 | Log2 Expression Level (gene #81 of Table 8): 5.69 | Log2 Expression Level (gene #82 of Table 8): 4.90 | Log2 Expression Level (gene #83 of Table 8): 7.87 | Log2 Expression Level (gene #84 of Table 8): 7.51 | Log2 Expression Level (gene #85 of Table 8): 4.61 | Log2 Expression Level (gene #86 of Table 8): 6.60 | Log2 Expression Level (gene #87 of Table 8): 7.01 | Log2 Expression Level (gene #88 of Table 8): 5.04 | Log2 Expression Level (gene #89 of Table 8): 5.15 | Log2 Expression Level (gene #90 of Table 8): 10.08 | Log2 Expression Level (gene #91 of Table 8): 6.27 | Log2 Expression Level (gene #92 of Table 8): 7.41 | Log2 Expression Level (gene #93 of Table 8): 8.87 | Log2 Expression Level (gene #94 of Table 8): 7.83 | Log2 Expression Level (gene #95 of Table 8): 5.79 | Log2 Expression Level (gene #96 of Table 8): 6.84 | Log2 Expression Level (gene #97 of Table 8): 5.27 | Log2 Expression Level (gene #98 of Table 8): 5.94 | Log2 Expression Level (gene #99 of Table 8): 9.42 | Log2 Expression Level (gene #100 of Table 8): 7.53

— US20150307938A1, “METHOD TO IDENTIFY A NOVEL CLASS OF IMMUNOLOGIC ADJUVANTS” (Lancell, L.L.C., priority 2011, published 2015)
